The test system of data set [1] is production of interleukin 1β. Conditions: disclosed in JP Laid-Open No. 2000-198776; cited from earlier work.
Data set [2] can be described thus: Solubility of compound 1 in water. The class given is physicochemical.

On to `CSc1ccc(-c2nn(Cc3ccccc3)c(=O)cc2-c2ccc(Cl)cc2)cc1` [compound 1, 2-benzyl-5-(4-chlorophenyl)-6-[4-(methylthio)phenyl]-2H-pyridazin-3-one], for which the “effect for suppressing production of interleukin 1β (in words)” value in data set [1] is recorded as “excellent effect”. In addition, in data set [2], the “solubility in water (in words)” value is recorded as “exceptionally poor solubility in water”.
